{
  "source": "patent US20180042891A1",
  "about": "“Cancer Cell Apoptosis” (e-Therapeutics plc, priority 2009, published 2018)",
  "key": {"[1]": {"tested_on": "G-361 melanoma cells", "test": "Caspase 3/7 apoptosis and CellTiter-Blue cell viability assay, 24 hour", "assay_type": "cell-based, human", "details": "G-361, 24 hours incubation", "protocol": "(§1) Assay was performed at a 24 hour timepoint on 3 melanoma lines (A375, G-361, WM266-4) 2 breast cancer lines (MCF7, MDA-MB-231), fibroblast (46BR.1G1), colon cancer (HCT116), prostate cancer (PC-3), glioblastoma (U373) and non-small cell lung cancer (NSCLC) (DMS-114)\n(§2) The above cell lines were maintained in RPMI 1640 culture medium (Sigma, UK) containing 10% (v/v) heat inactivated foetal bovine serum (Sigma, UK) and 2 mM […] at 37° C. in 5% humidified CO2. Cells were harvested, washed, re-suspended into growth medium and counted (Beckman-Coulter Vi-CELL XR). Cells were plated onto the middle 240 wells of 384 tissue culture plates at 1.6×lO^5 to 2.4×lO^5 cells/ml in 12.5 μl/well aliquots. 50 μl of growth media was aliquoted into the outer wells. 2 plates were prepared per cell line. Plates were incubated overnight at 37° C., in 5% humidified CO2.\n(§3) Dexanabinol was prepared in growth medium at 2 times the final assay concentration at 125, 31.3, 7.81, 2.00, 0.49, 0.12, 0.031 and O.OO8 μM (DMSO concentration was kept constant across the dilution range at 0.5%).\n(§4) Cisplatin was used as a positive control. The final assays concentrations were 10, 2.5, 0.63, 0.156, 0.039, 0.010, 0.002 and 0.0006 μg/ml. […] 12.5 μl of growth media was added to the media control wells. The plates were incubated for 24 hours at 37° C., in 5% humidified CO2.\n(§5) Caspase 3/7 levels were assessed by Apo-ONE® Homogeneous Caspase-3/7 assay kit. Fluorescence was measured using a FlexStation® II^384 plate reader at 1, 2, 3 and 4 hours after addition of the caspase substrate. The 4 hour readings were used for analysis.\n(§6) The cell viability assay was performed in parallel on the same plate for each line using CellTiter-Blue® (Promega) reagent. Briefly, 25 μl of CellTiter-Blue® (Promega) reagent was added to each well. The plates were shaken for 1 minute at 500 rpm and then incubated at 37° C., 5% CO2 for 4 hours."}, "[2]": {"tested_on": "46Br.1G1 fibroblast cells", "test": "Caspase 3/7 apoptosis and CellTiter-Blue cell viability assay, 24 hour", "assay_type": "cell-based, human", "details": "46Br.1G1, 24 hours incubation", "protocol": "as §1, §2, §3, §4, §5, §6"}, "[3]": {"tested_on": "WM266-4 melanoma cells", "test": "Caspase 3/7 apoptosis and CellTiter-Blue cell viability assay, 24 hour", "assay_type": "cell-based, human", "details": "WM266-4, 24 hours incubation", "protocol": "as §1, §2, §3, §4, §5, §6"}, "[4]": {"tested_on": "PC-3 prostate cancer cells", "test": "Caspase 3/7 apoptosis and CellTiter-Blue cell viability assay, 24 hour", "assay_type": "cell-based, human", "details": "PC-3, 24 hours incubation", "protocol": "as §1, §2, §3, §4, §5, §6"}, "[5]": {"tested_on": "MDA-MB-231 breast cancer cells", "test": "Caspase 3/7 apoptosis and CellTiter-Blue cell viability assay, 24 hour", "assay_type": "cell-based, human", "details": "MDA-MB-231, 24 hours incubation", "protocol": "as §1, §2, §3, §4, §5, §6"}, "[6]": {"tested_on": "DMS-114 NSCLC cells", "test": "Caspase 3/7 apoptosis and CellTiter-Blue cell viability assay, 24 hour", "assay_type": "cell-based", "details": "DMS-114, 24 hours incubation", "protocol": "as §1, §2, §3, §4, §5, §6"}, "[7]": {"tested_on": "A375 melanoma cells", "test": "Caspase 3/7 apoptosis and CellTiter-Blue cell viability assay, 24 hour", "assay_type": "cell-based", "details": "A375, 24 hours incubation", "protocol": "as §1, §2, §3, §4, §5, §6"}, "[8]": {"tested_on": "MCF7 breast cancer cells", "test": "Caspase 3/7 apoptosis and CellTiter-Blue cell viability assay, 24 hour", "assay_type": "cell-based", "details": "MCF7, 24 hours incubation", "protocol": "as §1, §2, §3, §4, §5, §6"}, "[9]": {"tested_on": "U373 glioblastoma cells", "test": "Caspase 3/7 apoptosis and CellTiter-Blue cell viability assay, 24 hour", "assay_type": "cell-based", "details": "U373, 24 hours incubation", "protocol": "as §1, §2, §3, §4, §5, §6"}, "[10]": {"tested_on": "HCT116 colon cancer cells", "test": "Caspase 3/7 apoptosis and CellTiter-Blue cell viability assay, 24 hour", "assay_type": "cell-based", "details": "HCT116, 24 hours incubation", "protocol": "as §1, §2, §3, §4, §5, §6"}, "[11]": {"tested_on": "Panc-1 cells", "parameters": "dose or concentration left out as unconfirmed", "details": "at this same concentration; cited from earlier work"}, "[12]": {"tested_on": "Aspc-1", "parameters": "dose or concentration left out as unconfirmed", "details": "cited from earlier work"}, "[13]": {"tested_on": "panel of cancer cell lines and a human fibroblast line", "test": "Apo-ONE Caspase-3/7 apoptosis assay, whole panel of cell lines", "assay_type": "cell-based", "protocol": "as §1, §2, §3\nCisplatin was used as a positive control. […]\nas §5"}, "[14]": {"molecular_target": "CDK2 (Homo sapiens, UniProt P24941)", "test": "Direct assay against CDK2", "assay_type": "biochemical", "details": "when directly assayed"}, "[15]": {"tested_on": "panel of cancer cell lines and a human fibroblast line", "test": "CellTiter-Blue cell viability (cytotoxicity), whole panel of cell lines", "assay_type": "cell-based", "protocol": "as §1, §2, §3\n(§7) The final assays concentrations were 10, 2.5, 0.63, 0.156, 0.039, 0.010, 0.002 and 0.0006 μg/ml. […] 12.5 μl of growth media was added to the media control wells. The plates were incubated for 24 hours at 37° C., in 5% humidified CO2.\nas §6"}, "[16]": {"test": "CellTiter-Blue cell viability (cytotoxicity), whole panel of cell lines", "assay_type": "cell-based", "details": "human; at the highest concentration; read-out: loss in cell viability", "protocol": "as §1, §2, §3, §7, §6"}, "[17]": {"molecular_target": "CDK5 (Homo sapiens, UniProt Q00535)", "sequence (Q00535 whole entry, species assumed)": "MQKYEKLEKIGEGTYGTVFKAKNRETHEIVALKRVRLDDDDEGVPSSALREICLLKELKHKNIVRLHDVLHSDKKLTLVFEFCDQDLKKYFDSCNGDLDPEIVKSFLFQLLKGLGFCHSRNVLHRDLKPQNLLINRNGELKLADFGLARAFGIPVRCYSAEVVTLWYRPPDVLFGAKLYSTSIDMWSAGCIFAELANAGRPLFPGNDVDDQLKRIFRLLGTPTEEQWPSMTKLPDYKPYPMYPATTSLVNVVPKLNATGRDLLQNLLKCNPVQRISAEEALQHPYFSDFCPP", "sequence (Q15078 99-307 partner limits assumed, species assumed)": "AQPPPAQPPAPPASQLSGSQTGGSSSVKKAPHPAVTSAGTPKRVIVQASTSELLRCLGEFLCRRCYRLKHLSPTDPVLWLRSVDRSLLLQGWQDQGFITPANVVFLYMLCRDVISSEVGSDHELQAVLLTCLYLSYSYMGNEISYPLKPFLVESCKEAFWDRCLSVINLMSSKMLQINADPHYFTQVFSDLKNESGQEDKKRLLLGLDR", "test": "Direct assay against CDK5", "assay_type": "biochemical", "details": "when directly assayed"}, "[18]": {"tested_on": "melanoma cell lines (A375, Malme-3M, UACC62)", "details": "previous studies, WO '700; read-out: decreased growth, IC50 value; cited from earlier work"}},
  "data": [
    {"smiles": "N.N.[Cl][Pt][Cl]", "note": "[Cisplatin, reference compound]", "values": [
      {"measurement": "IC50", "setting": "[1]", "result": 18, "unit": "µM"},
      {"measurement": "Rank: apoptosis induction and decrease in proliferation", "setting": "[1]", "result": "** (moderate apoptosis induction and decrease in proliferation (35-70%))"},
      {"measurement": "IC50", "setting": "[2]", "result": 21.5, "unit": "µM"},
      {"measurement": "Rank: apoptosis induction and decrease in proliferation", "setting": "[2]", "result": "** (moderate apoptosis induction and decrease in proliferation (35-70%))"},
      {"measurement": "IC50", "setting": "[3]", "result": 62, "unit": "µM"},
      {"measurement": "Rank: apoptosis induction and decrease in proliferation", "setting": "[3]", "result": "* (weak apoptosis induction and decrease in proliferation (<35%))"},
      {"measurement": "IC50", "setting": "[4]", "result": "~58", "unit": "µM"},
      {"measurement": "Rank: apoptosis induction and decrease in proliferation", "setting": "[4]", "result": "* (weak apoptosis induction and decrease in proliferation (<35%))"},
      {"measurement": "IC50", "setting": "[5]", "result": "> 33", "unit": "µM"},
      {"measurement": "Rank: apoptosis induction and decrease in proliferation", "setting": "[5]", "result": "* (weak apoptosis induction and decrease in proliferation (<35%))"},
      {"measurement": "IC50", "setting": "[6]", "result": "~40.2", "unit": "µM"},
      {"measurement": "Rank: apoptosis induction and decrease in proliferation", "setting": "[6]", "result": "* (weak apoptosis induction and decrease in proliferation (<35%))"},
      {"measurement": "IC50", "setting": "[7]", "result": 21.8, "unit": "µM"},
      {"measurement": "Rank: apoptosis induction and decrease in proliferation", "setting": "[7]", "result": "** (moderate apoptosis induction and decrease in proliferation (35-70%))"},
      {"measurement": "IC50", "setting": "[8]", "result": 40.6, "unit": "µM"},
      {"measurement": "Rank: apoptosis induction and decrease in proliferation", "setting": "[8]", "result": "** (moderate apoptosis induction and decrease in proliferation (35-70%))"},
      {"measurement": "IC50", "setting": "[9]", "result": "> 33", "unit": "µM"},
      {"measurement": "Rank: apoptosis induction and decrease in proliferation", "setting": "[9]", "result": "* (weak apoptosis induction and decrease in proliferation (<35%))"},
      {"measurement": "IC50", "setting": "[10]", "result": 29.5, "unit": "µM"},
      {"measurement": "Rank: apoptosis induction and decrease in proliferation", "setting": "[10]", "result": "** (moderate apoptosis induction and decrease in proliferation (35-70%))"}
    ]},
    {"smiles": "CCCCCCC(C)(C)c1cc(O)c2c(c1)OC(C)(C)[C@H]1CC=C(CO)C[C@H]21", "note": "[Dexanabinol, 1, 1 dimethyl heptyl-(3S,4S)-7-hydroxy-Δ^6-tetrahydrocannabinol]", "values": [
      {"measurement": "Panc-1 cells proliferation inhibited", "setting": "[11]", "result": 26, "unit": "%"},
      {"measurement": "Aspc-1 proliferation", "setting": "[12]", "result": "not affected"},
      {"measurement": "Rank: apoptosis induction and decrease in proliferation", "setting": "[1]", "result": "*** (good apoptosis induction and decrease in proliferation (>70%))"},
      {"measurement": "IC50", "setting": "[1]; Homo sapiens", "result": 11, "unit": "µM"},
      {"measurement": "Rank: apoptosis induction and decrease in proliferation", "setting": "[2]", "result": "*** (good apoptosis induction and decrease in proliferation (>70%))"},
      {"measurement": "IC50", "setting": "[2]; Homo sapiens, Fibroblast", "result": 23.1, "unit": "µM"},
      {"measurement": "IC50", "setting": "[3]; Homo sapiens, WM 266-4", "result": 20.9, "unit": "µM"},
      {"measurement": "Rank: apoptosis induction and decrease in proliferation", "setting": "[3]", "result": "** (moderate apoptosis induction and decrease in proliferation (35-70%))"},
      {"measurement": "IC50", "setting": "[4]; Homo sapiens", "result": 19.9, "unit": "µM"},
      {"measurement": "Rank: apoptosis induction and decrease in proliferation", "setting": "[4]", "result": "*** (good apoptosis induction and decrease in proliferation (>70%))"},
      {"measurement": "IC50", "setting": "[5]; Homo sapiens", "result": "10 to 50", "unit": "µM"},
      {"measurement": "Rank: apoptosis induction and decrease in proliferation", "setting": "[5]", "result": "** (moderate apoptosis induction and decrease in proliferation (35-70%))"},
      {"measurement": "concentrations at which pro-apoptotic effect and effect on cell number were shown", "setting": "[13]", "result": "≥ 10", "unit": "µM"},
      {"measurement": "concentration of peak response in apoptosis", "setting": "[13]; dropped at the highest concentration of 10 μM", "result": 2.5, "unit": "µM"},
      {"measurement": "Rank: apoptosis induction and decrease in proliferation", "setting": "[6]", "result": "* (weak apoptosis induction and decrease in proliferation (<35%))"},
      {"measurement": "IC50", "setting": "[6]; Homo sapiens", "result": "10 to 50", "unit": "µM"},
      {"measurement": "Rank: apoptosis induction and decrease in proliferation", "setting": "[7]", "result": "** (moderate apoptosis induction and decrease in proliferation (35-70%))"},
      {"measurement": "IC50", "setting": "[7]; Homo sapiens, A-375", "result": 19.2, "unit": "µM"},
      {"measurement": "IC50", "setting": "[8]; Homo sapiens", "result": 16.2, "unit": "µM"},
      {"measurement": "Rank: apoptosis induction and decrease in proliferation", "setting": "[8]", "result": "*** (good apoptosis induction and decrease in proliferation (>70%))"},
      {"measurement": "IC50", "setting": "[9]; Homo sapiens, U373 MG", "result": "10 to 50", "unit": "µM"},
      {"measurement": "Rank: apoptosis induction and decrease in proliferation", "setting": "[9]", "result": "* (weak apoptosis induction and decrease in proliferation (<35%))"},
      {"measurement": "Rank: apoptosis induction and decrease in proliferation", "setting": "[10]", "result": "*** (good apoptosis induction and decrease in proliferation (>70%))"},
      {"measurement": "IC50", "setting": "[10]; Homo sapiens, HCT-116", "result": 22.3, "unit": "µM"},
      {"measurement": "direct activity against CDK2", "setting": "[14]", "result": "no significant direct activity"},
      {"measurement": "IC50", "setting": "[15]; Homo sapiens, Fibroblast, read-out: cytotoxic response, IC50 values", "result": "10 to 25", "unit": "µM"},
      {"measurement": "concentration giving dose-dependent decrease in cell viability", "setting": "[15]; all cell lines", "result": "> 10^−5 M"},
      {"measurement": "cytotoxicity at 24 h, 62.5 µM", "setting": "[16]", "result": 100, "unit": "%"},
      {"measurement": "direct activity against CDK5", "setting": "[17]", "result": "no significant direct activity"},
      {"measurement": "IC50", "setting": "[18]", "result": "10 to 20", "unit": "µM"}
    ]}
  ]
}
